Results reported in the supplement of paper PMC10307832.

Assays:
Assay in all cases: relative viability (nuclei count vs DMSO), 5 days (fraction); higher = more cells survive
Shikonin + Lapatinib = compound: CC(C)=CC[C@@H](O)C1=CC(=O)c2c(O)ccc(O)c2C1=O [Shikonin] + CS(=O)(=O)CCNCc1ccc(-c2ccc3ncnc(Nc4ccc(OCc5cccc(F)c5)c(Cl)c4)c3c2)o1 [Lapatinib] (partner 2 µM)
Method in brief: (§1)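 One day after seeding in 1536-well plates, lung cancer cell lines were dosed by pin tool. Dosing was either single-drug or a fixed anchor-drug dose plus five library-drug doses (not always all listed) in √10 steps. After 5 days, nuclei were stained in one fix-and-stain step and counted on 4× images, and relative viability is the nuclei count of treated wells over that of vehicle wells, given as the median of duplicate plates.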

Shikonin + Olaparib = compound: CC(C)=CC[C@@H](O)C1=CC(=O)c2c(O)ccc(O)c2C1=O [Shikonin] + O=C(c1cc(Cc2n[nH]c(=O)c3ccccc23)ccc1F)N1CCN(C(=O)C2CC2)CC1 [Olaparib] (partner 8 µM)
Method in brief: as §1

[1] = compound: CC(C)N(CCCNC(=O)Nc1ccc(C(C)(C)C)cc1)C[C@H]1O[C@@H](n2ccc3c(N)ncnc32)[C@H](O)[C@@H]1O + Cc1cc(Nc2cc(N3CCN(C)CC3)nc(Sc3ccc(NC(=O)C4CC4)cc3)n2)n[nH]1 [Tozasertib] (partner 0.1 µM)
Method in brief: as §1

[2] = compound: CC(C)N(CCCNC(=O)Nc1ccc(C(C)(C)C)cc1)C[C@H]1O[C@@H](n2ccc3c(N)ncnc32)[C@H](O)[C@@H]1O + Nc1ncn([C@H]2C[C@H](O)[C@@H](CO)O2)c(=O)n1 [Decitabine] (partner 2 µM)
Method in brief: as §1

| Cell Line | relative viability (Shikonin + Lapatinib; first compound 0.01 µM) | relative viability (Shikonin + Lapatinib; first compound 0.1 µM) | relative viability (Shikonin + Lapatinib; first compound 0.3162 µM) | relative viability (Shikonin + Lapatinib; first compound 1 µM) | relative viability (Shikonin + Olaparib; first compound 0.01 µM) | relative viability (Shikonin + Olaparib; first compound 0.1 µM) | relative viability (Shikonin + Olaparib; first compound 0.3162 µM) | relative viability (Shikonin + Olaparib; first compound 1 µM) | relative viability ([1]; first compound 0.08 µM) | relative viability ([1]; first compound 0.253 µM) | relative viability ([1]; first compound 0.8 µM) | relative viability ([1]; first compound 2.53 µM) | relative viability ([1]; first compound 8 µM) | relative viability ([2]; first compound 0.08 µM) | relative viability ([2]; first compound 0.253 µM) | relative viability ([2]; first compound 0.8 µM) | relative viability ([2]; first compound 2.53 µM) | relative viability ([2]; first compound 8 µM) |
| --- | --- | --- | --- | --- | --- | --- | --- | --- | --- | --- | --- | --- | --- | --- | --- | --- | --- | --- |
| NCI-H1915 | 1.01 | 1.18 | 1 | 1.09 | 0.254 | 0.268 | 0.257 | 0.245 | 0.443 | 0.401 | 0.434 | 0.388 | 0.426 | 0.274 | 0.289 | 0.269 | 0.25 | 0.267 |
| NCI-H1944 | 0.89 | 0.894 | 0.789 | 0.933 | 0.428 | 0.408 | 0.414 | 0.387 | 0.253 | 0.261 | 0.251 | 0.239 | 0.246 | 0.451 | 0.438 | 0.471 | 0.394 | 0.423 |
| NCI-H1975 | 0.871 | 1.17 | 0.859 | 0.896 | 0.815 | 0.836 | 0.955 | 0.715 | 0.696 | 0.765 | 0.741 | 0.597 | 0.569 | 0.367 | 0.44 | 0.273 | 0.354 | 0.376 |
| NCI-H1993 | – | 0.806 | 0.711 | 0.921 | 0.92 | 0.943 | 1.12 | 1.32 | 0.564 | – | – | 0.624 | 0.591 | 0.482 | – | 0.564 | 0.6 | 0.559 |
| NCI-H2009 | 1.02 | 0.894 | 0.923 | 0.498 | 0.774 | 0.691 | 0.624 | 0.497 | 0.765 | 0.727 | 0.798 | 0.695 | 0.713 | 0.476 | 0.418 | 0.438 | 0.39 | 0.372 |
| NCI-H2023 | 0.806 | 1.14 | 1.02 | 0.867 | 0.478 | 0.559 | 0.622 | 0.437 | 0.437 | 0.38 | 0.345 | 0.375 | 0.338 | 0.256 | 0.25 | 0.242 | 0.205 | 0.191 |
| NCI-H2085 | 0.767 | 0.727 | 0.718 | 0.774 | 0.756 | 0.82 | 0.725 | 0.76 | 0.746 | 0.78 | 0.797 | 0.854 | 0.716 | 0.55 | 0.486 | 0.561 | 0.542 | 0.546 |
| NCI-H2087 | 1.03 | 1.38 | 1.15 | 0.954 | 0.696 | 0.544 | 0.592 | 0.551 | 0.243 | 0.252 | 0.243 | 0.259 | 0.207 | 0.272 | 0.303 | 0.232 | 0.336 | 0.256 |
| NCI-H2126 | 0.779 | 0.795 | 0.81 | 0.824 | 0.953 | 1.14 | 0.943 | 0.92 | 0.844 | 0.834 | 0.812 | 0.843 | 0.786 | 0.568 | 0.591 | 0.557 | 0.551 | 0.508 |
| NCI-H2170 | 0.257 | 0.271 | 0.276 | 0.266 | 0.623 | 0.594 | 0.588 | 0.576 | 0.723 | 0.72 | 0.645 | 0.709 | 0.74 | 0.477 | 0.418 | 0.42 | 0.438 | 0.471 |
| NCI-H2347 | 0.981 | 1.01 | 1.08 | 0.913 | 0.55 | 0.619 | 0.451 | 0.551 | 0.51 | 0.492 | 0.48 | 0.539 | 0.654 | 0.529 | 0.688 | 0.616 | 0.664 | 0.432 |
| NCI-H2405 | 1.13 | 1.28 | 1.11 | 1.16 | 0.918 | 0.952 | 0.892 | 0.868 | 0.706 | 0.82 | 0.783 | 0.822 | 0.703 | 0.723 | 0.748 | 0.741 | 0.745 | 0.708 |
| NCI-H3122 | 0.973 | 1.13 | 1 | 1.04 | 0.655 | 0.631 | 0.621 | 0.679 | 0.477 | 0.489 | 0.382 | 0.383 | 0.353 | 0.445 | 0.467 | 0.462 | 0.409 | 0.481 |
| PC-3 [JPC-3] | 0.443 | 0.512 | 0.479 | 0.543 | 1.08 | 1.16 | 1.33 | 1.27 | 0.856 | 0.976 | 0.831 | 0.851 | 0.763 | 0.766 | 0.726 | – | 0.799 | 0.864 |
| PC-14 | 0.334 | 0.342 | 0.329 | 0.326 | 0.282 | 0.235 | 0.191 | 0.121 | 0.529 | 0.598 | 0.598 | 0.6 | 0.551 | 0.191 | 0.246 | 0.215 | 0.231 | 0.206 |
| RERF-LC-KJ | 0.972 | 0.939 | 0.83 | 0.941 | 1.05 | 1.08 | 0.842 | 0.62 | 0.505 | 0.495 | 0.546 | 0.509 | 0.474 | 0.703 | 0.685 | 0.715 | 0.639 | 0.693 |
| SK-LU-1 | 1.07 | 0.869 | 0.724 | 0.786 | 0.45 | 0.413 | 0.441 | 0.468 | 0.35 | 0.41 | 0.352 | 0.49 | 0.346 | 0.626 | 0.642 | 0.657 | 0.702 | 0.568 |
| SK-MES-1 | 0.543 | 0.509 | 0.514 | 0.463 | 0.887 | 0.665 | 0.723 | 0.495 | 0.855 | 0.959 | 0.962 | 0.92 | 0.872 | 0.436 | 0.377 | 0.36 | 0.384 | 0.377 |
